Experimental data reported in patent US6306881A, “Anti-inflammatory agents” (British Biotech Pharmaceuticals, priority 1998, dated 2001).

Assays:
LTA4 hydrolase = conditions: isolated enzyme; T. D. Penning et al, 1995; cited from earlier work
cells = conditions: cited from earlier work
LTA4-hydrolase = target: T1, LTA4-hydrolase (Rattus norvegicus, UniProt P30349); test: Inhibition of LTA4 hydrolase activity (LTB4 formation by radioimmunoassay); format: biochemical; conditions: crude fraction from rat lung, 1 minute at 37° C.
T1 construct: was prepared as a crude fraction from rat lung tissue; from tissue; host or cells: rat lung tissue, crude fraction
T1 sequence (P30349 1-611): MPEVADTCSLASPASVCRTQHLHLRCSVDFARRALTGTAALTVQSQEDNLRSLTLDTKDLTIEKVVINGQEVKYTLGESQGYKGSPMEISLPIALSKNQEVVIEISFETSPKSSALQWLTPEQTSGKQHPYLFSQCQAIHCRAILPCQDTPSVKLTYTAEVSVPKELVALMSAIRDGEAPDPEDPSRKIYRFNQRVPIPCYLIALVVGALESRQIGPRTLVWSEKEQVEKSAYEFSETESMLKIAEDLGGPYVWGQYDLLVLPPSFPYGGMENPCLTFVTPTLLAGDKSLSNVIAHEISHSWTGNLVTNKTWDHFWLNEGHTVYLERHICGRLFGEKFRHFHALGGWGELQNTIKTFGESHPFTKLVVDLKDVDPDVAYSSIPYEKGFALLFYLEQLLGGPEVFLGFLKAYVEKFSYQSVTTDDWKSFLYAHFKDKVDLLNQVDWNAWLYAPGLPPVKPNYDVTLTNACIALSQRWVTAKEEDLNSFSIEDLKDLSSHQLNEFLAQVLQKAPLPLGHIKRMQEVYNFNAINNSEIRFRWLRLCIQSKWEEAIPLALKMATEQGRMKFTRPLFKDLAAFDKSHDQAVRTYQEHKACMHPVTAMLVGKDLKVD
Protocol: LTA4 -hydoiase was prepared as a crude fraction from rat lung tissue. The sodium salt of LTA4 was incubated with the enzyme and test compounds at 10 μM for 1 minute at 37° C. The reaction was terminated by the addition of ice-cold methanol. Formation of LTB4 was assessed by radioimmunoassay. Results are expressed as a percentage inhibition of LTA4 hydrolase activity.

[1] = test system: Leukotriene Synthesis by Rat Basophilic Leukaemia Cells; test: Inhibition of Leukotriene Synthesis by Rat Basophilic Leukaemia Cells (RBL-1, A23187 stimulated, LTB4); format: cell-based; conditions: RBL-1 cells, 4.75 hours preincubation, 10 μM A23187, 15 minutes at 37° C., value estimated, read-out: IC50 (leukotriene B4 synthesis)
Protocol: Inhibition of Leukotriene Synthesis by Rat Basophilic Leukaemia Cells
The rat basophilic leukaemia cell line RBL-1 was obtained from ATCC or ECACC and cultured in Dulbecco's modified Eagle's medium (DMEM) supplemented with 10% foetal bovine serum, non-essential amino acids, sodium pyruvate, penicillin, streptomycin and 2mM glutamine, at 37° C. in an atmosphere of 5% CO2 in air, as recommended by the culture collection.
RBL-1 cells were harvested during log growth, washed and resuspended in Hanks Balanced Salt Solution, without calcium chloride and magnesium chloride, supplemented with 10% foetal bovine serum and penicillin, streptomycin, and 2mM glutamine and adjusted to a final cell concentration of 1.25×10^5 cells/ml. Cells incubated in the presence of the appropriate concentration of inhibitor or vehicle for 4.75 hours at 37° C. Cells then transferred to ice for 15 minutes. Cells washed by centrifugation and resuspension in prechilled Phosphate Buffered Saline, with calcium chloride and magnesium chloride, supplemented with the appropriate concentration of test sample. […]
Treated cells then exposed to 10 μM A23187 for 15 minutes at 37° C. […] The levels of leukotriene B4 then determined in the cell free supernatant using the Leukotriene B4 [^3 H] assay system from Amersham Pharmacia Biotech.

male Lewis rats = test: Rat Adjuvant Arthritis Model; format: in vivo; conditions: Day 10 to Day 21, vs vehicle, P<0.05
Protocol: Rat Adjuvant Arthritis Model
Adjuvant arthritis was induced in male Lewis rats on Day 0, using a suspension of mycobacterium butyncum in mineral oil, inoculated subcutaneously, into the base of the tail. The volume of the hind paws was measured regularly to assess the time course of disease progression. […] Nine animals were allocated to each group. Animals received their first treatment on Day 10, either vehicle (2% DMSO in PBSiTween (0.01%v/v)) or test compound, formulated as a suspension in the vehicle. Treatment was administered as an intraperitoneal bolus injection, once daily, for the duration of the study. The study was ended on Day 21. The percent increase in mean paw volume from Day 10 to Day 21 was calculated for each animal and the compound treated groups compared to the vehicle treated control group.

Structure (SMILES) | LTA4 hydrolase inhibitory activity (LTA4 hydrolase) | ability to penetrate cells (cells) | inhibition at 10 µM (LTA4-hydrolase) | IC50 [1] | inhibition of paw swelling (male Lewis rats; 30mg/kg i.p. once daily) | inhibition of paw swelling (male Lewis rats; 100mg/kg i.p. once daily)
C[C@H](CS)C(=O)N1CCC[C@H]1C(=O)O [captopril] | exhibit LTA4 hydrolase inhibitory activity against isolated enzyme | unable to effectively penetrate cells | – | – | – | –
C=CC[C@H](C(=O)NO)[C@@H](CC(C)C)C(=O)N[C@H](C(=O)OC1CCCC1)c1ccccc1 [Example 40, 2S-(3S-Hydroxycarbamoyl-2R-isobutyl-hex-5-enoylamino)-2-phenylethanoic acid cyclopentyl ester] | – | – | 75% | – | – | –
C[C@H](NC(=O)[C@@H](CC(=O)NO)Cc1ccccc1)C(=O)O [kelatorphan] | exhibit LTA4 hydrolase inhibitory activity against isolated enzyme | unable to effectively penetrate cells | 80% | 350 nM | – | –
CC(C)C[C@H](NC(=O)[C@@H](O)[C@H](N)Cc1ccccc1)C(=O)O [bestatin] | exhibit LTA4 hydrolase inhibitory activity against isolated enzyme | unable to effectively penetrate cells | – | – | – | –
C=CC[C@H](C(=O)NO)[C@@H](CC(C)C)C(=O)N[C@@H](Cc1ccccc1)C(=O)OC1CCCC1 [Example 19, 2S-(3S-Hydroxycarbamoyl-2R-isobutyl-hex-5-enoylamin)-3-phenylpropionic acid cyclopentyl ester] | – | – | 78% | 2 nM | 60% | 77%
